From ChEMBL document CHEMBL1201862, “PubChem BioAssay data set” (2004)
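All cell lines were grown in 96-well plates and treated with compound for 48 hours. Here, GI50 denotes the concentration required for 50% inhibition of growth.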 Calls of active or inactive are those of the source. Rule as the data show it: active = GI50 up to about 1.1 µM and inactive = higher.

Legend:
Assay in all cases: DTP human tumour cell line panel, 48 h
[1] = test system: LOX IMVI
[2] = test system: NCI-H23
[3] = test system: DLD-1
[4] = test system: SK-MEL-5
[5] = test system: ACHN
[6] = test system: 786-0
[7] = test system: COLO 205
[8] = test system: A549
[9] = test system: OVCAR-5
[10] = test system: UACC-257
[11] = test system: HOP-92
[12] = test system: OVCAR-4
[13] = test system: UACC-62
[14] = test system: NCI-H226
[15] = test system: OVCAR-3
[16] = test system: CCRF-CEM
[17] = test system: MCF7
[18] = test system: BT-549
[19] = test system: MDA-MB-231
[20] = test system: NCI-H522

Compound | GI50 [1] | GI50 [2] | GI50 [3] | GI50 [4] | GI50 [5] | GI50 [6] | GI50 [7] | GI50 [8] | GI50 [9] | GI50 [10] | GI50 [11] | GI50 [12] | GI50 [13] | GI50 [14] | GI50 [15] | GI50 [16] | GI50 [17] | GI50 [18] | GI50 [19] | GI50 [20]
O=C1CCC(=O)C1=NNc1cc(Cl)cc(Cl)c1 | > 100 µM (inactive) | > 100 µM (inactive) | > 100 µM (inactive) | 61.5 µM (inactive) | > 100 µM (inactive) | > 100 µM (inactive) | 36.6 µM (inactive) | > 100 µM (inactive) | > 100 µM (inactive) | > 100 µM (inactive) | > 100 µM (inactive) | > 100 µM (inactive) | > 100 µM (inactive) | > 100 µM (inactive) | 26.2 µM (inactive) | 47.8 µM (inactive) | – | – | – | –
O=[N+]([O-])c1ccc(N2CCC(CCCC3CCN(c4ccc([N+](=O)[O-])cc4[N+](=O)[O-])CC3)CC2)c([N+](=O)[O-])c1 | 14.8 µM (inactive) | 21.2 µM (inactive) | – | 15.1 µM (inactive) | 16.1 µM (inactive) | 14.5 µM (inactive) | 14.2 µM (inactive) | 16.4 µM (inactive) | 16.4 µM (inactive) | 14.6 µM (inactive) | 11 µM (inactive) | 12.9 µM (inactive) | 11.9 µM (inactive) | 25.6 µM (inactive) | 18 µM (inactive) | 13.7 µM (inactive) | 14.2 µM (inactive) | 24.4 µM (inactive) | 18.7 µM (inactive) | 18.2 µM (inactive)
COc1nc(NC2OC(COC(C)=O)C(OC(C)=O)C(OC(C)=O)C2OC(C)=O)c2c(OC(C)=O)c(C)c(=O)oc2n1 (stereo not given) | > 100 µM (inactive) | > 100 µM (inactive) | > 100 µM (inactive) | > 100 µM (inactive) | 1.7 µM (inactive) | > 100 µM (inactive) | > 100 µM (inactive) | > 100 µM (inactive) | > 100 µM (inactive) | > 100 µM (inactive) | > 100 µM (inactive) | > 100 µM (inactive) | > 100 µM (inactive) | > 100 µM (inactive) | > 100 µM (inactive) | > 100 µM (inactive) | – | – | – | –
OCC(CO)C1c2cccc3ccc4cccc1c4c23 | > 100 µM (inactive) | > 100 µM (inactive) | > 100 µM (inactive) | > 100 µM (inactive) | > 100 µM (inactive) | > 100 µM (inactive) | > 100 µM (inactive) | > 100 µM (inactive) | > 100 µM (inactive) | > 100 µM (inactive) | 80.9 µM (inactive) | > 100 µM (inactive) | > 100 µM (inactive) | 67.5 µM (inactive) | > 100 µM (inactive) | > 100 µM (inactive) | – | – | – | –
COC1CC(OC)C(O)C(CO)O1 (stereo not given) | > 100 µM (inactive) | > 100 µM (inactive) | > 100 µM (inactive) | > 100 µM (inactive) | > 100 µM (inactive) | > 100 µM (inactive) | – | > 100 µM (inactive) | > 100 µM (inactive) | > 100 µM (inactive) | – | > 100 µM (inactive) | > 100 µM (inactive) | – | > 100 µM (inactive) | > 100 µM (inactive) | – | – | – | > 100 µM (inactive)
N#CC(C#N)=C1SC(=N\c2ccccc2)/C(=N/c2ccccc2)N1c1ccccc1 | 10.7 µM (inactive) | 29.6 µM (inactive) | – | 14.3 µM (inactive) | 20 µM (inactive) | 14.8 µM (inactive) | 10.1 µM (inactive) | 58.9 µM (inactive) | 20.7 µM (inactive) | 15.7 µM (inactive) | 6.82 µM (inactive) | 13.2 µM (inactive) | 5.79 µM (inactive) | 23.4 µM (inactive) | 2.37 µM (inactive) | 2.09 µM (inactive) | 13.4 µM (inactive) | 8.24 µM (inactive) | 7.8 µM (inactive) | 1.94 µM (inactive)
CO/C=C(/C(=O)OC)c1ccccc1COc1cccc(C(F)(F)F)c1 | 1.16 µM (inactive) | 2.26 µM (inactive) | – | 0.473 µM (active) | 3.63 µM (inactive) | 8.09 µM (inactive) | 6.61 µM (inactive) | 2.91 µM (inactive) | > 100 µM (inactive) | 0.676 µM (active) | 5.65 µM (inactive) | 8 µM (inactive) | 0.638 µM (active) | 1.89 µM (inactive) | 10.2 µM (inactive) | 0.489 µM (active) | 5.35 µM (inactive) | 6.28 µM (inactive) | 7.89 µM (inactive) | 0.526 µM (active)
COC(=O)C(=O)C(C(=O)C=C(C)C)C(=O)C(=O)Nc1ccc(C)cc1C (stereo not given) | > 100 µM (inactive) | > 100 µM (inactive) | > 100 µM (inactive) | > 100 µM (inactive) | > 100 µM (inactive) | > 100 µM (inactive) | > 100 µM (inactive) | > 100 µM (inactive) | > 100 µM (inactive) | > 100 µM (inactive) | – | > 100 µM (inactive) | > 100 µM (inactive) | > 100 µM (inactive) | > 100 µM (inactive) | > 100 µM (inactive) | – | – | – | > 100 µM (inactive)
O=c1[nH]c2cc3cccnc3c(Cl)c2nc1CBr | 13.9 µM (inactive) | 15 µM (inactive) | – | 17.5 µM (inactive) | 7.4 µM (inactive) | 6.49 µM (inactive) | 13.8 µM (inactive) | 19.3 µM (inactive) | 20.3 µM (inactive) | 18.7 µM (inactive) | 14.1 µM (inactive) | 19.3 µM (inactive) | 12.4 µM (inactive) | 19.1 µM (inactive) | 14.8 µM (inactive) | 5.79 µM (inactive) | 10.1 µM (inactive) | 26.5 µM (inactive) | 15.9 µM (inactive) | 11 µM (inactive)
CC1CC[P+](c2ccccc2)(c2ccccc2)CC1 | 51.3 µM (inactive) | 72.6 µM (inactive) | > 100 µM (inactive) | 20.8 µM (inactive) | > 100 µM (inactive) | > 100 µM (inactive) | 18.7 µM (inactive) | > 100 µM (inactive) | > 100 µM (inactive) | 33.6 µM (inactive) | – | – | 58.5 µM (inactive) | > 100 µM (inactive) | 46.2 µM (inactive) | 67.6 µM (inactive) | – | – | – | 40.5 µM (inactive)
CC/C(=N\NS(=O)(=O)c1ccccc1)c1ccccc1 | > 100 µM (inactive) | > 100 µM (inactive) | > 100 µM (inactive) | > 100 µM (inactive) | > 100 µM (inactive) | > 100 µM (inactive) | > 100 µM (inactive) | > 100 µM (inactive) | > 100 µM (inactive) | > 100 µM (inactive) | > 100 µM (inactive) | > 100 µM (inactive) | > 100 µM (inactive) | > 100 µM (inactive) | > 100 µM (inactive) | > 100 µM (inactive) | – | – | – | –
Cc1cc(C)nc(NS(=O)(=O)c2ccc(NC(=O)c3ccc(Cl)c4c(Nc5ccc(S(=O)(=O)Nc6nc(C)cc(C)n6)cc5)c5ccccc5nc34)cc2)n1 | 3.91 µM (inactive) | 3.75 µM (inactive) | 21.9 µM (inactive) | 17.7 µM (inactive) | 26.9 µM (inactive) | 5.18 µM (inactive) | 15.9 µM (inactive) | 22.8 µM (inactive) | 15.7 µM (inactive) | 27.7 µM (inactive) | 2.08 µM (inactive) | 11 µM (inactive) | 2.04 µM (inactive) | – | 29.2 µM (inactive) | 4.09 µM (inactive) | – | – | – | –
COC(=O)C1([C@@H]2C[C@@H](O)[C@]3(C)CC/C=C(\C)CCC[C@H](C)[C@H](O)[C@@H]2O3)CC1 | 61.4 µM (inactive) | 50.4 µM (inactive) | – | 39.4 µM (inactive) | 24.8 µM (inactive) | 92.3 µM (inactive) | 57 µM (inactive) | 33.9 µM (inactive) | 80.5 µM (inactive) | 56.1 µM (inactive) | 96.4 µM (inactive) | 45.9 µM (inactive) | 66.8 µM (inactive) | 27.2 µM (inactive) | 51.4 µM (inactive) | > 100 µM (inactive) | 41.9 µM (inactive) | 53.7 µM (inactive) | 90.2 µM (inactive) | 38.5 µM (inactive)
COc1cc2[nH]c3c(c2cc1OC)CCN[C@]31CC[C@]2(CC3c4c(cc(OC)c(O)c42)CCN3C)C[C@H]1OC (stereo not given in full) | 24.3 µM (inactive) | 65.5 µM (inactive) | 24.4 µM (inactive) | 15 µM (inactive) | 24.8 µM (inactive) | 15.7 µM (inactive) | 13.7 µM (inactive) | 25.1 µM (inactive) | 69.3 µM (inactive) | 19.9 µM (inactive) | 25.8 µM (inactive) | 23.8 µM (inactive) | 25 µM (inactive) | 45.5 µM (inactive) | 21.2 µM (inactive) | 10.8 µM (inactive) | – | – | – | –
O=[N+]([O-])c1ccc(N/N=C/c2ccc(OCCCCCCCCCCCO)cc2)c([N+](=O)[O-])c1 | 7.64 µM (inactive) | 14.4 µM (inactive) | – | 1.77 µM (inactive) | 9.2 µM (inactive) | 1.91 µM (inactive) | 2.01 µM (inactive) | 5.96 µM (inactive) | 14.8 µM (inactive) | 4.91 µM (inactive) | 4.82 µM (inactive) | 4.13 µM (inactive) | 2.32 µM (inactive) | 6.37 µM (inactive) | 30.3 µM (inactive) | 3.91 µM (inactive) | 6.05 µM (inactive) | 5.94 µM (inactive) | 35.2 µM (inactive) | 2.35 µM (inactive)
COc1ccc2[nH]c3c(cnn4cnnc34)c2c1 | > 100 µM (inactive) | > 100 µM (inactive) | > 100 µM (inactive) | 0.262 µM (active) | > 100 µM (inactive) | > 100 µM (inactive) | > 100 µM (inactive) | > 100 µM (inactive) | > 100 µM (inactive) | > 100 µM (inactive) | > 100 µM (inactive) | > 100 µM (inactive) | > 100 µM (inactive) | – | > 100 µM (inactive) | > 100 µM (inactive) | – | – | – | > 100 µM (inactive)
